Reference: EP1205482A2, “Alkyl trimethylsiloxybenzoat compounds and method of preparation” (Clariant Life Science Molecules (Florida) Inc., priority 2000, dated 2002)

Experiment: Hydrolytic stability in aqueous medium
Type: physicochemical
Details: 50/50 w/w medium of 1,2-dimethoxyethane (DME) and sterilized water
Experimental: Aqueous solutions of the products from examples 3 and 5 above were prepared as follows. A 0.715% solution of propyl 4-trimethylsiloxybenzoate was prepared in a 50/50 w/w medium of 1,2-dimethoxyethane (DME)and sterilized water. […] Accordingly this DME/water solution (I) will contain 0.500% propyl 4-hydroxybenzoate and 0.180% trimethylsilanol and/or it's condensate hexamethyldisiloxane. In a similar manner a 0.685 % solution of butyl 4-trimethylsiloxybenzoate was prepared in a 50/50 w/w medium of 1,2-dimethoxyethane (DME)and sterilized water. […] Accordingly this DME/water solution (II) will contain 0.500% butyl 4-hydroxybenzoate and 0.170% trimethylsilanol and/or it's condensate hexamethyldisiloxane. The above two aqueous solutions were employed in Zone Inhibition Testing against three bacteria: Pseudomonas aeruginosa, Escherichia coli and Staphylococcus aureus.

Structure (SMILES) | hydrolytic stability
CCCOC(=O)c1ccc(O[Si](C)(C)C)cc1 [Example 3, propyl 4-trimethylsiloxybenzoate] | hydrolytically unstable
CCCCOC(=O)c1ccc(O[Si](C)(C)C)cc1 [Example 4, butyl 4-trimethylsiloxybenzoate] | hydrolytically unstable
